Values quoted from earlier work, collected in patent publication US20070207944A1, “Blood Pressure Lowering Oligopeptides” (priority 2004, published 2007).

Assays:
ACE = ACE (Homo sapiens, UniProt P12821); conditions: for ACE inhibiting activity: in vitro, as reported in the literature
[1] = system: spontaneously hypertensive rats; conditions: Nakamura et al. 1995, tripeptides from fermented milk

Sequence of ACE (P12821 30-1306, species assumed): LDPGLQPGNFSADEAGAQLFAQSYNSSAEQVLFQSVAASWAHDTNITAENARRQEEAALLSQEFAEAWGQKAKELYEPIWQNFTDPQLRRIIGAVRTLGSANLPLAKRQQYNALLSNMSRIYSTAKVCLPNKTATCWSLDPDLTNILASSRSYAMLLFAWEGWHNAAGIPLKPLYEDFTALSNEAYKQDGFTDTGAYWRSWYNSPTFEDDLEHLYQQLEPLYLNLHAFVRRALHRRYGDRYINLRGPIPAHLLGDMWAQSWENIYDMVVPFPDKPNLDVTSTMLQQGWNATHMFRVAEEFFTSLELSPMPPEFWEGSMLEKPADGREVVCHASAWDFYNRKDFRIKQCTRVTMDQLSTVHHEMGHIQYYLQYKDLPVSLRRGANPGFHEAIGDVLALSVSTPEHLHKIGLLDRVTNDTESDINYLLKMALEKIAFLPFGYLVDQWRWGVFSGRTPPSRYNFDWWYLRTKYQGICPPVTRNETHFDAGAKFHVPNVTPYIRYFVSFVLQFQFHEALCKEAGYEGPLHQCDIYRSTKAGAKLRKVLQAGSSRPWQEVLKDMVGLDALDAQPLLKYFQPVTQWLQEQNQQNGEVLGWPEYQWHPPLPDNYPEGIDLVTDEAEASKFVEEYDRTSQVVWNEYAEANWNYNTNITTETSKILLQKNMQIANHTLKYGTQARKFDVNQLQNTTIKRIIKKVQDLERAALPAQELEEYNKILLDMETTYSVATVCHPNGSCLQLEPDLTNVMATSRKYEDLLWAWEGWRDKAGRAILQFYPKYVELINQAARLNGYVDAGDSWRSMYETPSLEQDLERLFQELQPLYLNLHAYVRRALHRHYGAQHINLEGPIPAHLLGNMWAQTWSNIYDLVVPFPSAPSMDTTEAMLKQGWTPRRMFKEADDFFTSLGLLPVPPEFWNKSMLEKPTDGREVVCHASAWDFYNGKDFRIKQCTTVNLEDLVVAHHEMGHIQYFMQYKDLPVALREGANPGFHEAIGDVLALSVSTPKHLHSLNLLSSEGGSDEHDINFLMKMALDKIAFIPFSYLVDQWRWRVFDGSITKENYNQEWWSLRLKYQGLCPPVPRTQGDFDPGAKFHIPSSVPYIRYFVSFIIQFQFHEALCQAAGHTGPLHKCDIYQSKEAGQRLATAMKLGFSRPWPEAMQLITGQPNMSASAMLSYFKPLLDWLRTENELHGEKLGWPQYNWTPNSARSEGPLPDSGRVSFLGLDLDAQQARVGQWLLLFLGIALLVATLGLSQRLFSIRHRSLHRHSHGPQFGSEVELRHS

| ACE inhibiting activity (ACE) | Substance | antihypertensive effects [1] | IC50 (ACE; reported by EP 0 583 074, read-out: IC50 value (ACE inhibition)) [µM] |
| --- | --- | --- | --- |
| Strong ACE inhibiting activities | Ile-Pro-Pro [IPP] | could be confirmed |  |
| Strong ACE inhibiting activities | Leu-Pro-Pro [LPP] |  |  |

| Substance | ACE inhibiting activity (ACE) | antihypertensive effects [1] | IC50 (ACE; reported by EP 0 583 074, read-out: IC50 value (ACE inhibition)) [µM] |
| --- | --- | --- | --- |
| Val-Pro-Pro [VPP] | Strong ACE inhibiting activities | could be confirmed | 9 |
